Key:
[1] = Body weight after ACT (S1A); format: in vivo, mouse; conditions: EpA-Th9 therapy vs control; result in words
Experimental: C57BL/6 mice were subcutaneously injected with 5 × 10^5 B16-OVA melanoma cells. Five days after tumor implantation, mice received an intravenous infusion of 2 × 10^6 in vitro–differentiated Th9 cells (cultured for 5 days), which were derived from OT-II CD45.1 donor mice, accompanied by 4 × 10^5 OVA peptide–pulsed DCs via the tail vein. To enhance T cell engraftment and facilitate lymphodepletion, a single intraperitoneal injection of cyclophosphamide (200 mg/kg, Sigma, catalog C0768) was administered 1 day prior to T cell transfer. Mice were euthanized at designated time points for the collection and analysis of spleens, tumor-draining lymph nodes, and tumor tissues.
Days after ACT Days after ACT
Figure S1. EpA enhances immune responses.
(A) Body weight of mice after ACT in PBS, control, and EpA-treated groups. (B) Serum IL-6 levels after ACT, measured by ELISA on days 5, 10, 15, and 20. (C–E) Representative flow-cytometric plots showing transferred CD45.1⁺ OT-II Th9 cells in spleens (C), tumor-draining lymph nodes (LNs) (D), and tumors (E); frequencies Figure S1 and absolute numbers of CD45.1⁺ OT-II Th9 cells in LNs are quantified in (D). (F–
I) Representative flow-cytometric plots of endogenous CD4⁺ and CD8⁺ T cells in spleens (F), LNs (G), and tumors (H); frequencies and absolute numbers of endogenous CD4⁺ (G) and CD8⁺ (I) T cells in LNs are quantified. […]

Th9 cells = experiment: Screening of 65 natural compounds for IL-9 production by Th9 cells (Figure 1B); format: cell-based, mouse; conditions: 10 μM; result in words
Source text: To identify natural small molecules that enhance the antitumor potential of Th9 cells, we constructed a chemically and structurally defined small-molecule library derived from endophytic fungi isolated from G. lucidum and Periplaneta americana (Supplemental Table 1; supplemental material available online with this article; https://doi.org/10.1172/JCI196907DS1). This library comprised 65 structurally diverse metabolites classified into 11 distinct scaffold families, with each compound structurally elucidated via NMR spectroscopy and verified against previously reported spectral data. To functionally evaluate the immunomodulatory potential of these compounds, we systematically screened the library for their ability to promote Th9 cell differentiation, assessed by intracellular IL-9 expression using flow cytometry (Figure 1, A and B).
Naive CD4^+ T cells were isolated from the spleens of C57BL/6J or CD45.1^+ OT-II mice using the MojoSort Mouse CD4 Naive T Cell Isolation Kit (BioLegend, catalog 480040), following the manufacturer’s protocol. Purified cells were cultured in RPMI-1640 medium supplemented with 10% FBS, 1% penicillin-streptomycin, and 0.1% β-mercaptoethanol (Gibco, catalog 21985023). […]

Which body weight [1] does the source give for anteiso-C15 Leu7 surfactin [EpA] here?
Its body weight is “No significant differences”.

And the “Th9 polarization in screen” value (Th9 cells)?
The value was “most potent enhancer of Th9 polarization”.

— article PMC12867150, “A fungi-derived cyclic peptide enhances Th9-mediated antitumor immunity by targeting ZAP70 and SREBP1” (The Journal of Clinical Investigation, 2025)
